Experimental data taken from patent US5521216A, “Chromone derivative, and aldose reductase inhibitor comprising said compound as active ingredient” (Tsumura & Co., priority 1992, dated 1996).

Key:
Aldose reductase [1] = molecular target: T1, Aldose reductase (Rattus norvegicus, UniProt P07943); test: Aldose reductase activity measurement (in vivo), sorbitol in sciatic nerves of STZ diabetic rats; parameters: species or system Wistar male rats; settings: sciatic nerve sorbitol, oral for 2 weeks, 100 mg/kg (other compounds stated at 30 mg/kg)
T1 construct: The crystalline lenses were homogenized in 135 mM sodium-potassium-phosphate buffer; from tissue; host or cells: crystalline lens of 6 week-old male Wistar rats (30,000 rpm supernatant)
Protocol: <Aldose reductase activity measurement (in vivo)>
A solution of streptozotocin (STZ) in 10 mM citrate buffer (pH 4.5) was administered intravenously to the tails of 6 week-old Wistar male rats in a dosage of 65 mg/kg. 48 hours thereafter, blood was collected from the carotid arteries of the rats. Rats with a blood sugar level of higher than 200 mg/dl were classified as diabetic rats, among which rats with a persistent high level of blood sugar were employed in the experiment. The blood sugar level was determined by the glucose oxidase method. […]
After 2-week administration, the sciatic nerves were removed from the rat under ether anesthesia, then weighed, and stored at -20° C.
The content of sorbitol in the sciatic nerves was determined as follows.
The sciatic nerves were extracted at 100° C. for 20 min. with 1 ml purified water containing 10 μg/ml arabinitol, and then 0.2 ml of 0.2M barium hydroxide and 0.2 ml of 0.19M zinc sulfate were added thereto. The sample was centrifuged (3000 rpm, 30 min.) and the supernatant was evaporated to dryness. The residue thus obtained was trimethysilylated and was then analyzed by gas chromatography.
Sorbitol is an intermediate which occurs upon the conversion of glucose into fructose by aldose reductase and is accumulated together with fructose in the crystalline lenses and sciatic nerves particularly under a high level of blood sugar. […]

Aldose reductase [2] = molecular target: T1, Aldose reductase; test: Aldose reductase activity measurement (in vitro), rat crystalline lens enzyme, NADP fluorescence; format: biochemical, Wistar male rats; settings: 20 mM glucose substrate, 30 min, 30° C., pH 7.0, read-out: 50% inhibition concentration [IC50 (M)]
Protocol: <Aldose reductase activity measurement (in vitro)>
6 week-old Wistar male rats were sacrificed under ether anesthesia and immediately the crystalline lenses were scissored and stored at -20° C.
The crystalline lenses were homogenized in 135 mM sodium-potassium-phosphate buffer, pH 7.0, and centrifuged for 30 min. at 30,000 rpm. The supernatant was used as an aldose-reductase solution. All the above procedures were carried out at 4° C. and the enzyme solution was stored at -20° C.
Aldose reductase activity was determined according to the method as described by Dufrane et al. (Biochemical Medicine, 32, 99-105 (1984)), as follows.
100 μl of the above enzyme solution and 100 μl of a sample solution prepared by dissolving a compound obtained in the following examples to a final concentration of from 1.0×10^-5 to 4.0×10^-7 M in dimethylsulfoxide (DMSO) were added to 800 μl of 135 mM sodium-potassium-phosphate buffer, pH 7.0, containing 100 mM lithium sulfate, 0.03 mM NADPH (reduced nicotinamide adenine dinucleotide phosphate), and 20 mM glucose as a substrate. The sample was allowed to react for 30 min. at 30° C. Then the reaction was stopped by addition of 0.3 ml of 0.5N hydrochloric acid. By adding 1 ml of 6N sodium hydroxide containing 10 mM imidazole, the NADP (oxidized nicotinamide adenine dinucleotide phosphate) formed in the above reaction was converted into a fluorescent substance, and 30 min. thereafter, the sample was measured for fluorescence intensity at the fluorescence wavelength of 460 nm (excitation wavelength: 360 nm) using fluorescence photometer F-4000 (manufactured by Hitachi, Ltd.) at room temperature. A sample containing DMSO in place of the present compound was used as a control group, and its fluorescence intensity was determined in the same manner as described above.
Aldose reductase is an enzyme that converts DL-glyceraldehyde or glucose into polyol in the presence of […] as a coenzyme, and as the reaction proceeds, NADPH is converted into NADP.

Repression (%) (Aldose reductase [1]) | IC50 (Aldose reductase [2]) | SMILES
18.9% | – | COc1c(O)cc2oc(Oc3ccc(O)cc3)cc(=O)c2c1O [Capillarisin]
– | 1.8e-08 M | CC(C)Oc1cc(OC(C)C)c2c(=O)cc(Sc3ccc(O)cc3)oc2c1 [Example 1, 2-(4-hydroxyphenylthio)-5,7-di-isopropoxychromone]
– | 3.2e-07 M | O=c1cc(Sc2ccc(O)cc2)oc2cc(O)cc(O)c12 [Example 4, 5,7-dihydroxy-2-(4-hydroxyphenylthio)chromone]
– | 2.3e-07 M | CC(C)Oc1cc(O)c2c(=O)cc(Sc3ccc(O)cc3)oc2c1 [Example 5, 5-hydroxy-2-(4-hydroxyphenylthio)-7-isopropoxychromone]
– | 8e-08 M | COc1cc(OC(C)C)cc2oc(Sc3ccc(O)cc3)cc(=O)c12 [Example 6, 2-(4-hydroxyphenylthio)-7-isopropoxy-5-methoxychromone]
